Data from ChEMBL document CHEMBL5257035, “Nucleoside Derived Antibiotics to Fight Microbial Drug Resistance: New Utilities for an Established Class of Drugs?” (J Med Chem, 2016).
≈ marks a conversion by molar mass, not a printed value.

Tests used:
Mycobacterium kansasii = assay: Antimycobacterial activity against Mycobacterium kansasii assessed as microbial growth reduction; format: functional
Mycobacterium avium = assay: Antimycobacterial activity against Mycobacterium avium assessed as microbial growth reduction; format: functional
[1] = tested on: Mycobacterium intracellulare; assay: Antimycobacterial activity against Mycobacterium intracellulare assessed as microbial growth reduction; format: functional
[2] = Cytotoxicity against human HepG2 cells assessed as reduction in cell viability incubated for 72 hrs by MTT assay; format: toxicity, cell-based
Staphylococcus aureus = assay: Antibacterial activity against methicillin-resistant Staphylococcus aureus SR3637 assessed as reduction in bacterial growth inhibition; format: functional
[3] = tested on: Mycolicibacterium smegmatis; assay: Antibacterial activity against Mycobacterium smegmatis SANK75075 assessed as bacterial growth inhibition; format: functional
Escherichia coli = assay: Antibacterial activity against Escherichia coli ATCC 25922 assessed as bacterial growth inhibition measured after 48 hrs by microdilution method; format: functional
[4] = target: T1, Phospho-N-acetylmuramoyl-pentapeptide-transferase (Escherichia coli K-12, UniProt P0A6W3); assay: Inhibition of MraY in Escherichia coli K12
T1 sequence (P0A6W3 whole entry): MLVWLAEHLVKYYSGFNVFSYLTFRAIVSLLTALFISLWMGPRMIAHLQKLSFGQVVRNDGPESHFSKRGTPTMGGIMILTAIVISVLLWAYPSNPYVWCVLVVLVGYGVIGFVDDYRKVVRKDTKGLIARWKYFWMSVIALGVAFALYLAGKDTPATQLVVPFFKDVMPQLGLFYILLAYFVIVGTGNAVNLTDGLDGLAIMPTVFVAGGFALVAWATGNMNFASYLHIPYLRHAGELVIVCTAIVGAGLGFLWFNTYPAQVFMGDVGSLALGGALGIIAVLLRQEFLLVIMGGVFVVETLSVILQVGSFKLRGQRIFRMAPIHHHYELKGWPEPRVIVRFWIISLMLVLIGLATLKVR

[5] = tested on: Cutaneotrichosporon cutaneum; assay: Antifungal activity against Trichosporon cutaneum 3071 assessed as reduction in microbial growth inhibition for 48 hrs by broth microdilution assay; format: functional
Candida albicans = assay: Antifungal activity against Candida albicans SC5314 assessed as reduction in microbial growth inhibition incubated for 48 hrs by broth microdilution assay; format: functional
Cryptococcus neoformans = assay: Antifungal activity against Cryptococcus neoformans assessed as reduction in fungal growth; format: functional
Coccidioides immitis = assay: Antifungal activity against Coccidioides immitis assessed as reduction in fungal growth; format: functional
Pseudomonas aeruginosa [6] = assay: Antibacterial activity against Pseudomonas aeruginosa assessed as bacterial growth reduction; format: functional
Pseudomonas aeruginosa [7] = assay: Antibacterial activity against Pseudomonas aeruginosa assessed as bacterial growth inhibition; format: functional

## CCCCCCCCCCCCCC(=O)O[C@@H]1[C@H](OC)[C@@H]([C@@H](O[C@@H]2OC(C(=O)N[C@H]3CCC[C@@H](C)NC3=O)=C[C@@H](O)[C@H]2O)C(N)=O)O[C@H]1n1ccc(=O)[nH]c1=O
Mycobacterium kansasii
  MIC: 0.063 µg/mL (≈ 0.0794 µM)
Mycobacterium avium
  MIC: 0.063 µg/mL (≈ 0.0794 µM)
[1]
  MIC: 0.063 µg/mL (≈ 0.0794 µM)

## CC(C)[C@H](NC(=O)N[C@H](C(=O)N[C@H](CCCCCCCc1ccc(-c2ccccc2)cc1)C(=O)NCCCNC(C(=O)O)[C@H](O[C@@H]1O[C@H](CN)[C@@H](O)[C@H]1O)[C@H]1O[C@@H](n2ccc(=O)[nH]c2=O)[C@H](O)[C@@H]1O)[C@@H]1CCNC(=N)N1)C(=O)O (stereo partly drawn)
[2]
  IC50 at 72 h: > 100 µg/mL

## CCCCCCCCCCCCCC[C@@H](NC(=O)C(C)CCCNC(=N)N)C(=O)NC[C@@H]1C[C@H]2[C@@H](C(=O)N1)[C@H]([C@H]1O[C@@H](n3ccc(=O)[nH]c3=O)[C@H](O)[C@@H]1O)ON2CCCN (stereo partly drawn)
Staphylococcus aureus
  MIC: 8 µg/mL (≈ 9.42 µM)

## CCCCCCCCCCCCCC(=O)NC[C@@H]1C[C@H]2[C@@H](C(=O)N1CCCNC(=N)N)[C@H]([C@H]1O[C@@H](n3ccc(=O)[nH]c3=O)[C@H](O)[C@@H]1O)ON2CCCN
Staphylococcus aureus
  MIC: 8 µg/mL (≈ 10.7 µM)

## CO[C@H]1[C@@H](O)[C@H](n2ccc(=O)[nH]c2=O)O[C@@H]1[C@@H](O[C@@H]1OC(C(=O)Nc2ccccc2)=C[C@@H](O)[C@H]1O)C(N)=O
[3]
  MIC: 6.25 µg/mL (≈ 11.7 µM)

## CCCCNC[C@@H](O[C@@H]1O[C@H](CN)[C@@H](O)[C@H]1O)[C@H]1O[C@@H](n2ccc(=O)[nH]c2=O)[C@H](O)[C@@H]1O
Escherichia coli
  MIC: 2.5 µg/mL (≈ 5.43 µM)
[4]
  IC50: 330 nM

## CCCCCCCCCCCNC[C@@H](O[C@@H]1O[C@H](CN)[C@@H](O)[C@H]1O)[C@H]1O[C@@H](n2ccc(=O)[nH]c2=O)[C@H](O)[C@@H]1O
Escherichia coli
  MIC: 2.5 µg/mL (≈ 4.47 µM)
[4]
  IC50: 330 nM

## C/C=C1\CN(C(=O)[C@@H](NC(=O)[C@@H](N)[C@H](O)[C@@H](O)COC(N)=O)[C@H]2O[C@@H](n3cc(C=O)[nH]c3=O)[C@H](O)[C@@H]2O)[C@H]1C(=O)O
[5]
  MIC: 0.5 µg/mL
Candida albicans
  MIC: > 256 µg/mL

## CO[C@H]1[C@@H](O)[C@H](n2ccc(=O)[nH]c2=O)O[C@@H]1[C@@H](O[C@@H]1OC(C(=O)NCCCSC)=C[C@@H](O)[C@H]1O)C(N)=O
[3]
  MIC: 12.5 µg/mL (≈ 22.9 µM)

## CCCCCCCCCCCCCC(=O)NC[C@@H]1C[C@H]2[C@@H](C(=O)N1CCCNC(=N)N)[C@@H]([C@H]1O[C@@H](n3ccc(=O)[nH]c3=O)[C@H](O)[C@@H]1O)ON2CCCN
Staphylococcus aureus
  MIC: 8 µg/mL (≈ 10.7 µM)

## CSCC[C@H](N)C(=O)N[C@H](C(=O)O)[C@@H]1C[C@@H](O)[C@@H](O)[C@H](n2ccc(=O)[nH]c2=O)O1
Cryptococcus neoformans
  MIC: 0.25 µg/mL (≈ 0.578 µM)
Coccidioides immitis
  MIC: 0.25 µg/mL (≈ 0.578 µM)

## NC(=O)OC[C@H](O)[C@@H](O)[C@H](N)C(=O)N[C@H](C(=O)NC(CCC(=O)O)C(=O)O)[C@H]1O[C@@H](n2cc(C=O)[nH]c2=O)[C@H](O)[C@@H]1O (stereo partly drawn)
[5]
  MIC: 256 µg/mL
Candida albicans
  MIC: > 256 µg/mL

## C[C@@H]([C@H](NC(=O)[C@H](Cc1ccccc1)NC(=O)N[C@@H](Cc1c[nH]c2ccccc12)C(=O)O)C(=O)NC[C@H]1C[C@@H](O)[C@H](n2ccc(=O)[nH]c2=O)O1)N(C)C(=O)CN
Pseudomonas aeruginosa [6]
  MIC: 8 µg/mL (≈ 10.3 µM)

## CSCC[C@H](NC(=O)NC(Cc1cccc(O)c1)C(=O)O)C(=O)NC(CN(C)C(=O)[C@@H](N)C(Cc1cccc(O)c1)NCC(=O)O)C(=O)N/C=C1/C[C@@H](O)[C@H](N2CCC(=O)NC2=O)O1 (stereo partly drawn)
Pseudomonas aeruginosa [7]
  MIC: 1.5 µg/mL (≈ 1.64 µM)

## CCCCCCCCCCCCCC[C@@H](NC(=O)C(C)CCCNC(=N)N)C(=O)NC[C@@H]1C[C@H]2[C@@H](C(=O)N1)[C@@H]([C@H]1O[C@@H](n3ccc(=O)[nH]c3=O)[C@H](O)[C@@H]1O)ON2CCCN (stereo partly drawn)
Staphylococcus aureus
  MIC: 8 µg/mL (≈ 9.42 µM)

## CCCCCCCCCCCCCNC[C@@H](O[C@@H]1O[C@H](CN)[C@@H](O)[C@H]1O)[C@H]1O[C@@H](n2ccc(=O)[nH]c2=O)[C@H](O)[C@@H]1O
Escherichia coli
  MIC: 2.5 µg/mL (≈ 4.26 µM)
[4]
  IC50: 330 nM

## CCCCCCCCCNC[C@@H](O[C@@H]1O[C@H](CN)[C@@H](O)[C@H]1O)[C@H]1O[C@@H](n2ccc(=O)[nH]c2=O)[C@H](O)[C@@H]1O
Escherichia coli
  MIC: 2.5 µg/mL (≈ 4.71 µM)
[4]
  IC50: 330 nM

## CC(C)C[C@H](NC(=O)N[C@@H](Cc1c[nH]c2ccccc12)C(=O)O)C(=O)N[C@H](C(=O)NC[C@H]1C[C@@H](O)[C@H](n2ccc(=O)[nH]c2=O)O1)[C@H](C)N(C)C(=O)CN
Pseudomonas aeruginosa [6]
  MIC: 4 µg/mL (≈ 5.39 µM)

## CCCCOc1ccc(-c2ccc(CC[C@H](NC(=O)[C@@H](NC(=O)N[C@H](C(=O)O)C(C)C)[C@@H]3CCNC(=N)N3)C(=O)NCCCNC(C(=O)O)[C@H](O[C@@H]3O[C@H](CN)[C@@H](O)[C@H]3O)[C@H]3O[C@@H](n4ccc(=O)[nH]c4=O)[C@H](O)[C@@H]3O)cc2)cc1 (stereo partly drawn)
[2]
  IC50 at 72 h: > 100 µg/mL
